Measured values published in the CheMixHub viscosity set.
± gives the uncertainty stated by the source.

Assay: xn = mol fraction of the nth substance listed
Conditions: 101 kPa

`COCCOCCOCCOCCOC` + O showed a viscosity (298 K, x1 = 0.0075) of 1.323 ± 0.035 mPa·s, a viscosity (298 K, x1 = 0.0142) of 1.533 ± 0.04 mPa·s and a viscosity (298 K, x1 = 0.0297) of 2.433 ± 0.062 mPa·s. The viscosity (298 K, x1 = 0.0419) was 3.198 ± 0.082 mPa·s, the viscosity (298 K, x1 = 0.0593) was 4.289 ± 0.11 mPa·s and the viscosity (298 K, x1 = 0.0784) was 5.24 ± 0.13 mPa·s. The viscosity (298 K, x1 = 0.1139) was 6.253 ± 0.16 mPa·s, the viscosity (298 K, x1 = 0.1398) was 6.469 ± 0.16 mPa·s and the viscosity (298 K, x1 = 0.1543) was 6.411 ± 0.16 mPa·s. It also gave a viscosity (303.15 K, x1 = 0.00562) of 1.177 ± 0.08 mPa·s, a viscosity (303.15 K, x1 = 0.02904) of 2.119 ± 0.081 mPa·s and a viscosity (303.15 K, x1 = 0.04576) of 3.14 ± 0.082 mPa·s. The viscosity (303.15 K, x1 = 0.07654) was 4.235 ± 0.084 mPa·s, the viscosity (303.15 K, x1 = 0.1006) was 4.915 ± 0.085 mPa·s and the viscosity (303.15 K, x1 = 0.1272) was 5.245 ± 0.086 mPa·s. For the same compound, the viscosity (303.15 K, x1 = 0.1512) was 5.331 ± 0.086 mPa·s, the viscosity (303.15 K, x1 = 0.2009) was 5.151 ± 0.086 mPa·s and the viscosity (303.15 K, x1 = 0.2493) was 4.865 ± 0.085 mPa·s. The viscosity (303.15 K, x1 = 0.2986) was 4.539 ± 0.085 mPa·s, the viscosity (303.15 K, x1 = 0.3508) was 4.269 ± 0.084 mPa·s and the viscosity (303.15 K, x1 = 0.4016) was 4.026 ± 0.084 mPa·s. For the same compound, the viscosity (303.15 K, x1 = 0.5033) was 3.66 ± 0.083 mPa·s, the viscosity (303.15 K, x1 = 0.5975) was 3.428 ± 0.083 mPa·s and the viscosity (303.15 K, x1 = 0.7029) was 3.236 ± 0.083 mPa·s. It also gave a viscosity (303.15 K, x1 = 0.8018) of 3.113 ± 0.083 mPa·s, a viscosity (303.15 K, x1 = 0.8532) of 3.066 ± 0.083 mPa·s and a viscosity (303.15 K, x1 = 0.9025) of 3.019 ± 0.083 mPa·s. For the same compound, the viscosity (303.15 K, x1 = 0.9447) was 2.982 ± 0.083 mPa·s, the viscosity (308.15 K, x1 = 0.00562) was 1.049 ± 0.08 mPa·s and the viscosity (308.15 K, x1 = 0.02904) was 1.844 ± 0.081 mPa·s. For the same compound, the viscosity (308.15 K, x1 = 0.04576) was 2.677 ± 0.082 mPa·s, the viscosity (308.15 K, x1 = 0.07654) was 3.566 ± 0.083 mPa·s and the viscosity (308.15 K, x1 = 0.1006) was 4.126 ± 0.084 mPa·s. It also gave a viscosity (308.15 K, x1 = 0.1272) of 4.392 ± 0.084 mPa·s, a viscosity (308.15 K, x1 = 0.1512) of 4.475 ± 0.085 mPa·s and a viscosity (308.15 K, x1 = 0.2009) of 4.371 ± 0.084 mPa·s. It also gave a viscosity (308.15 K, x1 = 0.2493) of 4.154 ± 0.084 mPa·s, a viscosity (308.15 K, x1 = 0.2986) of 3.909 ± 0.083 mPa·s and a viscosity (308.15 K, x1 = 0.3508) of 3.695 ± 0.083 mPa·s. The viscosity (308.15 K, x1 = 0.4016) was 3.508 ± 0.083 mPa·s, the viscosity (308.15 K, x1 = 0.5033) was 3.22 ± 0.083 mPa·s and the viscosity (308.15 K, x1 = 0.5975) was 3.025 ± 0.082 mPa·s. The viscosity (308.15 K, x1 = 0.7029) was 2.883 ± 0.082 mPa·s, the viscosity (308.15 K, x1 = 0.8018) was 2.78 ± 0.082 mPa·s and the viscosity (308.15 K, x1 = 0.8532) was 2.744 ± 0.082 mPa·s. The viscosity (308.15 K, x1 = 0.9025) was 2.704 ± 0.082 mPa·s, the viscosity (308.15 K, x1 = 0.9447) was 2.679 ± 0.082 mPa·s and the viscosity (313.15 K, x1 = 0.00562) was 0.937 ± 0.08 mPa·s. It also gave a viscosity (313.15 K, x1 = 0.02904) of 1.618 ± 0.081 mPa·s, a viscosity (313.15 K, x1 = 0.04576) of 2.309 ± 0.081 mPa·s and a viscosity (313.15 K, x1 = 0.07654) of 3.043 ± 0.082 mPa·s. It also gave a viscosity (313.15 K, x1 = 0.1006) of 3.487 ± 0.083 mPa·s, a viscosity (313.15 K, x1 = 0.1272) of 3.729 ± 0.083 mPa·s and a viscosity (313.15 K, x1 = 0.1512) of 3.802 ± 0.083 mPa·s. The viscosity (313.15 K, x1 = 0.2009) was 3.744 ± 0.083 mPa·s, the viscosity (313.15 K, x1 = 0.2493) was 3.6 ± 0.083 mPa·s and the viscosity (313.15 K, x1 = 0.2986) was 3.397 ± 0.083 mPa·s. It also gave a viscosity (313.15 K, x1 = 0.3508) of 3.228 ± 0.082 mPa·s, a viscosity (313.15 K, x1 = 0.4016) of 3.089 ± 0.082 mPa·s and a viscosity (313.15 K, x1 = 0.5033) of 2.853 ± 0.082 mPa·s. It also gave a viscosity (313.15 K, x1 = 0.5975) of 2.698 ± 0.082 mPa·s, a viscosity (313.15 K, x1 = 0.7029) of 2.577 ± 0.082 mPa·s and a viscosity (313.15 K, x1 = 0.8018) of 2.497 ± 0.082 mPa·s. For the same compound, the viscosity (313.15 K, x1 = 0.8532) was 2.467 ± 0.082 mPa·s, the viscosity (313.15 K, x1 = 0.9447) was 2.414 ± 0.082 mPa·s and the viscosity (318.15 K, x1 = 0.00562) was 0.839 ± 0.08 mPa·s. For the same compound, the viscosity (318.15 K, x1 = 0.02904) was 1.431 ± 0.08 mPa·s, the viscosity (318.15 K, x1 = 0.04576) was 1.992 ± 0.081 mPa·s and the viscosity (318.15 K, x1 = 0.07654) was 2.621 ± 0.082 mPa·s. It also gave a viscosity (318.15 K, x1 = 0.1006) of 2.994 ± 0.082 mPa·s, a viscosity (318.15 K, x1 = 0.1272) of 3.181 ± 0.082 mPa·s and a viscosity (318.15 K, x1 = 0.1512) of 3.273 ± 0.082 mPa·s. The viscosity (318.15 K, x1 = 0.2009) was 3.243 ± 0.082 mPa·s, the viscosity (318.15 K, x1 = 0.2493) was 3.128 ± 0.082 mPa·s and the viscosity (318.15 K, x1 = 0.2986) was 2.982 ± 0.082 mPa·s. For the same compound, the viscosity (318.15 K, x1 = 0.3508) was 2.845 ± 0.082 mPa·s, the viscosity (318.15 K, x1 = 0.4016) was 2.735 ± 0.082 mPa·s and the viscosity (318.15 K, x1 = 0.5033) was 2.543 ± 0.082 mPa·s. The viscosity (318.15 K, x1 = 0.5975) was 2.42 ± 0.082 mPa·s, the viscosity (318.15 K, x1 = 0.7029) was 2.323 ± 0.081 mPa·s and the viscosity (318.15 K, x1 = 0.8018) was 2.257 ± 0.082 mPa·s. It also gave a viscosity (318.15 K, x1 = 0.8532) of 2.231 ± 0.082 mPa·s, a viscosity (318.15 K, x1 = 0.9025) of 2.203 ± 0.082 mPa·s and a viscosity (318.15 K, x1 = 0.9447) of 2.182 ± 0.082 mPa·s. For the same compound, the viscosity (323.15 K, x1 = 0.00562) was 0.767 ± 0.08 mPa·s, the viscosity (323.15 K, x1 = 0.02904) was 1.275 ± 0.08 mPa·s and the viscosity (323.15 K, x1 = 0.04576) was 1.766 ± 0.081 mPa·s. The viscosity (323.15 K, x1 = 0.07654) was 2.273 ± 0.081 mPa·s, the viscosity (323.15 K, x1 = 0.1006) was 2.593 ± 0.082 mPa·s and the viscosity (323.15 K, x1 = 0.1272) was 2.758 ± 0.082 mPa·s. The viscosity (323.15 K, x1 = 0.1512) was 2.838 ± 0.082 mPa·s, the viscosity (323.15 K, x1 = 0.2009) was 2.839 ± 0.082 mPa·s and the viscosity (323.15 K, x1 = 0.2493) was 2.76 ± 0.082 mPa·s. It also gave a viscosity (323.15 K, x1 = 0.3508) of 2.528 ± 0.081 mPa·s, a viscosity (323.15 K, x1 = 0.4016) of 2.433 ± 0.081 mPa·s and a viscosity (323.15 K, x1 = 0.5033) of 2.281 ± 0.081 mPa·s. For the same compound, the viscosity (323.15 K, x1 = 0.5975) was 2.183 ± 0.081 mPa·s, the viscosity (323.15 K, x1 = 0.8018) was 2.047 ± 0.081 mPa·s and the viscosity (323.15 K, x1 = 0.8532) was 2.029 ± 0.081 mPa·s. For the same compound, the viscosity (323.15 K, x1 = 0.9447) was 1.99 ± 0.081 mPa·s.
